The target in one assay is T1, Myostatin (Homo sapiens, UniProt O14793).
T1 construct: active myostatin (also called mature myostatin) is a homodimer consisting of two C-terminal growth factor domains; purchased R&D systems 788-G8/CF
T1 sequence (O14793 267-375): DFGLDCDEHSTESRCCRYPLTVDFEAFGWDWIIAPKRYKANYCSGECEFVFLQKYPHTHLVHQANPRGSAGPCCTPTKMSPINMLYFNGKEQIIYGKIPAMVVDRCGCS
Put plainly: HepG2 reporter gene assay, Evaluation Procedure (2): 2-concentrations assay, myostatin inhibition. Format: cell-based. Conditions: Myostatin 10 ng/mL, HepG2; for inhibition at 0.03 µM: peptide 30nM, read-out: Myostatin Inhibition 30nM; for inhibition at 0.1 µM: peptide 100nM, read-out: Myostatin Inhibition 100nM. On the procedure: (§1) The pGL3(CAGA)12-luc plasmid, namely a pGL3 vector (E1751, Promega) having a luciferase gene inserted downstream of a promoter sequence with 12 CAGA repeats attached, was transfected into HepG2 cell line (HB-8065, ATCC). The culture of HepG2 cell line (HB-8065, ATCC) was performed as in the Evaluation Procedure (1).
(§2) Myostatin (788-G8/CF, R&D systems) or GDF-11 (1958-GD-G8/CF, R&D systems) was added at a final concentration of 10 ng/mL. […] At this time, blank wells, in which neither myostatin, GDF-11, nor each peptide was added, were also prepared and incubated in a CO2 incubator (37°C, 5% CO2) for 20 to 24 hours.
(§3) The medium containing the cells was removed, and a mixture containing PBS (14190144, Thermo) and a chromogenic substrate One-Glo Luciferase Assay System (E6120, Promega) at a ratio of 1:1 was added to each well at 100 µL/well. This was stirred with a plate shaker for 5 min and transferred to a 384-well plate (3570, Corning) at a volume of 20 µL/well.
(§4) The plate was centrifuged at 1,000 × g for 1 min and the luminescence signal (700 nm luminescence) was measured using a plate reader (Envision 2104, PerkinElmer). Based on the measurement results, the inhibition rate at each peptide concentration was calculated. […]

A further assay has as its target T2, GDF-11 (Homo sapiens, UniProt O95390).
T2 construct: purchased R&D systems 1958-GD-G8/CF
T2 sequence (O95390 299-407): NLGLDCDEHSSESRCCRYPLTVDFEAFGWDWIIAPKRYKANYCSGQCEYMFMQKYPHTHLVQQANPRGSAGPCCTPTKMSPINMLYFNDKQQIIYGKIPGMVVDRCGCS
The assay can be described thus: HepG2 reporter gene assay, Evaluation Procedure (2): 2-concentrations assay, GDF-11 inhibition. Format: cell-based. Conditions: GDF-11 10 ng/mL; for inhibition at 0.03 µM: HepG2, peptide 30nM, read-out: GDF11 Inhibition 30nM; for inhibition at 0.1 µM: HepG2, peptide 100nM, read-out: GDF11 Inhibition 100nM. The protocol:
as §1, §2, §3, §4
On the technique in general: In a reporter assay the amount or activity of a reporter protein is the signal.

Positions of bridges follow the written chain, without caps; N, C: chain ends. Non-standard residues stand in square brackets, D forms with d. Residues, ends and D or L forms follow the SMILES beside them. Phe(4-COOH) = N[C@@H](Cc1ccc(C(=O)O)cc1)C(=O)O; Trp(7-aza) = N[C@@H](Cc1c[nH]c2ncccc12)C(=O)O; Gly(N(CH2)3COOH) = O=C(O)CCCNCC(=O)O; NMeF = CN[C@@H](Cc1ccccc1)C(=O)O; Gly(N(CH2)3NH2) = NCCCNCC(=O)O; NMeC = CN[C@@H](CS)C(=O)O; NMeA = CN[C@@H](C)C(=O)O; Dap = NC[C@H](N)C(=O)O; Sar = CNCC(=O)O

Turning to `CC[C@H](C)[C@@H]1NC(=O)[C@H](Cc2ccccc2)N(C)C(=O)[C@H](Cc2ccc(O)cc2)NC(=O)[C@H](Cc2c[nH]c3ccccc23)NC(=O)[C@H](CCCNC(=N)N)NC(=O)[C@H](C)NC(=O)CSC[C@@H](C(N)=O)N(C)C(=O)[C@H](Cc2ccccc2)N(C)C(=O)[C@H](C)N(C)C(=O)[C@H](CC(C)C)NC(=O)[C@H](Cc2ccccc2)N(C)C(=O)[C@H](CCCNC(=N)N)NC(=O)[C@H](Cc2ccc(O)cc2)NC(=O)[C@H](Cc2ccc(O)cc2)NC(=O)CN(C)C1=O` [Myostatin_000099_15meC] ({CH2CO}-ARWY[NMeF]I[Sar]YYR[NMeF]L[NMeA][NMeF][NMeC]-NH2; thioether N-15), the inhibition at 0.03 µM on Myostatin came to 50%; on GDF-11, 0%. Moreover, the inhibition at 0.1 µM on Myostatin was determined as 75%; at GDF-11 it was 4%.
Regarding `CC[C@H](C)[C@@H]1NC(=O)[C@H](Cc2ccccc2)N(C)C(=O)[C@H](Cc2ccc(O)cc2)NC(=O)[C@H](Cc2c[nH]c3ccccc23)NC(=O)[C@H](CCCNC(=N)N)NC(=O)[C@H](C)NC(=O)CSC[C@@H](C(=O)N[C@@H](CN)C(N)=O)NC(=O)[C@H](Cc2ccccc2)N(C)C(=O)[C@H](C)N(C)C(=O)[C@H](CC(C)C)NC(=O)[C@H](Cc2ccccc2)N(C)C(=O)[C@H](CCCNC(=N)N)NC(=O)[C@H](Cc2ccc(O)cc2)NC(=O)[C@H](Cc2ccc(O)cc2)NC(=O)CN(C)C1=O` [Myostatin_000099_16Dap] ({CH2CO}-ARWY[NMeF]I[Sar]YYR[NMeF]L[NMeA][NMeF]C[Dap]-NH2; thioether N-15), the inhibition at 0.03 µM at Myostatin was determined as 56%; at GDF-11 it was 0%. Also, the inhibition at 0.1 µM came out at 83% at Myostatin and 11% at GDF-11.
On the same counts, the results for `CC[C@H](C)[C@@H]1NC(=O)[C@H](Cc2ccccc2)N(C)C(=O)[C@H](Cc2ccc(O)cc2)NC(=O)[C@H](Cc2c[nH]c3ccccc23)NC(=O)[C@H](CCCNC(=N)N)NC(=O)[C@H](C)NC(=O)CSC[C@@H](C(=O)N[C@H](CCC(=O)O)C(N)=O)NC(=O)[C@H](Cc2ccccc2)N(C)C(=O)[C@H](C)N(C)C(=O)[C@H](CC(C)C)NC(=O)[C@H](Cc2ccccc2)N(C)C(=O)[C@H](CCCNC(=N)N)NC(=O)[C@H](Cc2ccc(O)cc2)NC(=O)[C@H](Cc2ccc(O)cc2)NC(=O)CN(C)C1=O` [Myostatin_000099_16de] ({CH2CO}-ARWY[NMeF]I[Sar]YYR[NMeF]L[NMeA][NMeF]C[dE]-NH2; thioether N-15) are 50%, 0%, 82% and 3%.
Turning to `CC[C@H](C)[C@@H]1NC(=O)[C@H](Cc2ccccc2)N(C)C(=O)[C@H](Cc2ccc(O)cc2)NC(=O)[C@H](Cc2c[nH]c3ccccc23)NC(=O)[C@H](C)NC(=O)CN(CCCC(=O)O)C(=O)CSC[C@H](C(=O)O)NC(=O)[C@H](Cc2ccccc2)N(C)C(=O)[C@H](C)N(C)C(=O)[C@H](CC(C)C)NC(=O)[C@H](Cc2ccccc2)N(C)C(=O)[C@H](CCCNC(=N)N)NC(=O)[C@H](Cc2ccc(O)cc2)NC(=O)[C@H](Cc2ccc(C(=O)O)cc2)NC(=O)CN(C)C1=O` [Myostatin_99_Variant_06] ({CH2CO}-[Gly(N(CH2)3COOH)]AWY[NMeF]I[Sar][Phe(4-COOH)]YR[NMeF]L[NMeA][NMeF][dC]-OH; thioether N-15), the inhibition at 0.03 µM on Myostatin was found to be 40%; on GDF-11, 0%. The results for the inhibition at 0.1 µM at Myostatin and at GDF-11 were 65% and 0%, respectively.
As to `CC[C@H](C)[C@@H]1NC(=O)[C@H](Cc2ccccc2)N(C)C(=O)[C@H](Cc2ccc(O)cc2)NC(=O)[C@H](Cc2c[nH]c3ccccc23)NC(=O)[C@H](CN)NC(=O)[C@H](C)NC(=O)CSC[C@H](C(=O)N[C@@H](CN)C(N)=O)NC(=O)[C@H](Cc2ccccc2)N(C)C(=O)[C@H](C)N(C)C(=O)[C@H](CC(C)C)NC(=O)[C@H](Cc2ccccc2)N(C)C(=O)[C@H](CCCNC(=N)N)NC(=O)[C@H](Cc2ccc(O)cc2)NC(=O)[C@H](Cc2ccc(O)cc2)NC(=O)CN(C)C1=O` [Myostatin_99_Variant_08] ({CH2CO}-A[Dap]WY[NMeF]I[Sar]YYR[NMeF]L[NMeA][NMeF][dC][Dap]-NH2; thioether N-15), on Myostatin, the inhibition at 0.03 µM is 72% and the inhibition at 0.1 µM worked out at 92%. Moreover, at GDF-11, the inhibition at 0.03 µM was 7% and the inhibition at 0.1 µM stood at 22%.
Take `CC[C@H](C)[C@@H]1NC(=O)[C@H](Cc2ccccc2)N(C)C(=O)[C@H](Cc2ccc(O)cc2)NC(=O)[C@H](Cc2c[nH]c3ccccc23)NC(=O)[C@H](C)NC(=O)CN(CCCN)C(=O)CSC[C@H](C(=O)N[C@@H](CN)C(N)=O)NC(=O)[C@H](Cc2ccccc2)N(C)C(=O)[C@H](C)N(C)C(=O)[C@H](CC(C)C)NC(=O)[C@H](Cc2ccccc2)N(C)C(=O)[C@H](CCCNC(=N)N)NC(=O)[C@H](Cc2ccc(O)cc2)NC(=O)[C@H](Cc2ccc(O)cc2)NC(=O)CN(C)C1=O` [Myostatin_99_Variant_09] ({CH2CO}-[Gly(N(CH2)3NH2)]AWY[NMeF]I[Sar]YYR[NMeF]L[NMeA][NMeF][dC][Dap]-NH2; thioether N-15): the inhibition at 0.03 µM at Myostatin was found to be 65%; at GDF-11 it was 0%. Also, the inhibition at 0.1 µM came to 90% on Myostatin and 11% on GDF-11.
For `CC[C@H](C)[C@@H]1NC(=O)[C@H](Cc2ccccc2)N(C)C(=O)[C@H](Cc2ccc(O)cc2)NC(=O)[C@H](Cc2c[nH]c3ccccc23)NC(=O)[C@H](CN)NC(=O)[C@H](C)NC(=O)CSC[C@H](C(=O)N[C@@H](CN)C(=O)N[C@@H](CN)C(N)=O)NC(=O)[C@H](Cc2ccccc2)N(C)C(=O)[C@H](C)N(C)C(=O)[C@H](CC(C)C)NC(=O)[C@H](Cc2ccccc2)N(C)C(=O)[C@H](CCCNC(=N)N)NC(=O)[C@H](Cc2ccc(O)cc2)NC(=O)[C@H](Cc2ccc(O)cc2)NC(=O)CN(C)C1=O` [Myostatin_99_Variant_10] ({CH2CO}-A[Dap]WY[NMeF]I[Sar]YYR[NMeF]L[NMeA][NMeF][dC][Dap][Dap]-NH2; thioether N-15), in that order: 60%, 11%, 89% and 29%.
For `CC[C@H](C)[C@@H]1NC(=O)[C@H](Cc2ccccc2)N(C)C(=O)[C@H](Cc2ccc(O)cc2)NC(=O)[C@H](Cc2c[nH]c3ccccc23)NC(=O)[C@H](C)NC(=O)[C@H](C)NC(=O)CSC[C@H](C(=O)N[C@@H](CN)C(N)=O)NC(=O)[C@H](Cc2ccccc2)N(C)C(=O)[C@H](C)N(C)C(=O)[C@H](CC(C)C)NC(=O)[C@H](Cc2ccccc2)N(C)C(=O)[C@H](CCCNC(=N)N)NC(=O)[C@H](Cc2ccc(O)cc2)NC(=O)[C@H](CCCCN)NC(=O)CN(C)C1=O` [Myostatin_99_Variant_11] ({CH2CO}-AAWY[NMeF]I[Sar]KYR[NMeF]L[NMeA][NMeF][dC][Dap]-NH2; thioether N-15), in that order: 75%, 22%, 94% and 26%.
In the case of `CC[C@H](C)[C@@H]1NC(=O)[C@H](Cc2ccccc2)N(C)C(=O)[C@H](Cc2ccc(O)cc2)NC(=O)[C@H](Cc2c[nH]c3ccccc23)NC(=O)[C@H](CN)NC(=O)CN(CCCN)C(=O)CSC[C@H](C(N)=O)NC(=O)[C@H](Cc2ccccc2)N(C)C(=O)[C@H](C)N(C)C(=O)[C@H](CC(C)C)NC(=O)[C@H](Cc2ccccc2)N(C)C(=O)[C@H](CCCNC(=N)N)NC(=O)[C@H](Cc2ccc(O)cc2)NC(=O)[C@H](Cc2ccc(O)cc2)NC(=O)CN(C)C1=O` [Myostatin_99_Variant_13] ({CH2CO}-[Gly(N(CH2)3NH2)][Dap]WY[NMeF]I[Sar]YYR[NMeF]L[NMeA][NMeF][dC]-NH2; thioether N-15), the inhibition at 0.03 µM at Myostatin worked out at 51%; on GDF-11, 8%. The inhibition at 0.1 µM on Myostatin amounted to 76%; on GDF-11 it was 12%.
For the compound `CC[C@H](C)[C@@H]1NC(=O)[C@H](Cc2ccccc2)N(C)C(=O)[C@H](Cc2ccc(O)cc2)NC(=O)[C@H](Cc2c[nH]c3ncccc23)NC(=O)[C@H](C)NC(=O)CN(CCCC(=O)O)C(=O)CSC[C@H](C(N)=O)NC(=O)[C@H](Cc2ccccc2)N(C)C(=O)[C@H](C)N(C)C(=O)[C@H](CC(C)C)NC(=O)[C@H](Cc2ccccc2)N(C)C(=O)[C@H](CCCNC(=N)N)NC(=O)[C@H](Cc2ccc(C(=O)O)cc2)NC(=O)[C@H](Cc2ccc(O)cc2)NC(=O)CN(C)C1=O` [Myostatin_99_Variant_14] ({CH2CO}-[Gly(N(CH2)3COOH)]A[Trp(7-aza)]Y[NMeF]I[Sar]Y[Phe(4-COOH)]R[NMeF]L[NMeA][NMeF][dC]-NH2; thioether N-15), on Myostatin, the inhibition at 0.03 µM came to 41% and the inhibition at 0.1 µM was 73%. At GDF-11, the inhibition at 0.03 µM was determined as 0% and the inhibition at 0.1 µM worked out at 1%.

One may read the inhibition as the share of the control response that was lost under treatment.

(Values after EP4786487A1, “PEPTIDE” (Peptidream Inc, priority 2023, dated 2025).)
